According to US9751833B2, “Antimicrobial biguanide metal complexes” (Smith & Nephew PLC, priority 2005, dated 2017):

Key:
[1] = test system: Pseudomonas aeruginosa NCIMB 8626; assay: Zone of inhibition, seeded Mueller-Hinton agar plug-hole assay; format: cell-based; settings: 10 mg compound + 200 ul sterile water per 8 mm plug hole, 37° C., 24 hours, triplicates averaged
Procedure: (§1) Pseudomonas aeruginosa NCIMB 8626 and Staphylococcus aureus NCTC 10788 were harvested. Serial 1:10 dilutions were performed to give a final concentration of 10^8 bacteria/ml. Further dilutions were made for an inoculum count, down to […], with the number of bacteria/ml determined using the pour plate method.
(§2) Two large assay plates were then set up and 140 ml of Mueller-Hinton agar was added evenly to the large assay plates and allowed to dry (15 minutes). A further 140 ml of agar was seeded with the corresponding test organism and poured over the previous agar layer. Once the agar had set (15 minutes), the plate was dried at 37° C. for 30 minutes with the lid removed. 8 mm plugs were removed from the plate by biopsy punch.
(§3) In triplicate, 10 mg of the compounds prepared in Examples 1-3 were placed onto each plug hole followed by 200 ul sterile water. The plates were then sealed and incubated at 37° C. for 24 hours. The size of the microbial, including bacterial, zone cleared was measured using a Vernier calliper gauge, triplicates were averaged: […]

[2] = test system: Staphylococcus aureus NCTC 10788; assay: as above; format: cell-based; settings: 10 mg compound + 200 ul sterile water per 8 mm plug hole, 37° C., 24 hours, triplicates averaged
Procedure: as §1, §2, §3

Substance	Zone of Inhibition [1] [mm]	Zone of Inhibition [2] [mm]
Silver(III) Chlorhexidine (1,1′-hexamethylenebis[5-(p-chlorophenyl)biguanide] Complex [Example 1]	5.4	6.4
Silver(III) o-tolybiguanide Complex [Example 3]	7.4	8.4
